Values quoted from earlier work as cited in patent US20250067661A1, “SYSTEM FOR BODY FLUID ISOMER ANALYSIS” (KONINKLIJKE PHILIPS N.V., priority 2021, published 2025).

Details: intravenous solution containing a racemic mixture

## C[C@@H](O)C(=O)O [D-lactate]
  maximum increase in plasma concentration: ≤ 13 fold

## C[C@H](O)C(=O)O [L-lactate]
  maximum increase in plasma concentration: ≤ 2 fold
